From paper PMC8348780, “Preparation and Evaluation of Novel Folate Isonitrile ^99mTc Complexes as Potential Tumor Imaging Agents to Target Folate Receptors” (Molecules, 2021)
One block for each compound: values may come before it.

Tests used:
[1] = Solubility of the ligand in the labeling solution; type: physicochemical; conditions: labeling solution under weak acid
[2] = tested on: KB tumor-bearing mice; test: Biodistribution study in KB tumor-bearing mice; type: in vivo, BALB/c nude mice; conditions: for Tumor uptake: KB tumor
Experimental: The biodistribution experiments were divided into normal groups and inhibition groups (n = 3), in which the inhibition group was injected with inhibitor (about 4 × 10^4 µg/kg) 30 min in advance. The KB tumor-bearing mice were decapitated 30 and 120 min after the tail vein injection of 0.1 mL labeled solution (about 7.4 × 10^4 Bq). The heart, liver, lung, kidney, spleen, stomach, bone, muscle, intestine, tumor, blood, and other related tissues and organs were wiped clean and weighed, and the radioactivity count was measured. Each tissue per gram of injection dose (%ID/g) was calculated.

[3] = target: T1, folate receptor (KB cells) (Homo sapiens, UniProt P15328); test: In vitro competitive binding with KB cells; conditions: 37 °C, 2 h, competitive binding with inhibitor
T1 construct: endogenous in cells; host or cells: KB cells
T1 sequence (P15328 25-257): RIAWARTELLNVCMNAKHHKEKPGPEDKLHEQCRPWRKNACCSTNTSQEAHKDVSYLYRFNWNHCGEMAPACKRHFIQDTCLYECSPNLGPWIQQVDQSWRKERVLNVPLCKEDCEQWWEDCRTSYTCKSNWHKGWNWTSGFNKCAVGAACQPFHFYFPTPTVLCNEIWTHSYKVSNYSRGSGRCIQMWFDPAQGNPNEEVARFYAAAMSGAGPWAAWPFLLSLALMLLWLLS
Experimental: KB cells were cultured with FFRPMI 1640 medium 24 h in advance on a 48-well plate with 5 × 10^4 cells per well. The labeling solution was diluted to 5 μCi/mL with the same medium after growing, and the inhibitor was prepared at different concentrations. The 48-well plates were divided into eight groups, and each group was incubated with 100 μL of inhibitor solution, 100 μL of diluted labeled solution (5 μCi/mL), and 200 μL of medium at 37 °C for 2 h.
After removing the cell plate from the incubator, the medium was removed, and the cells were washed with PBS (0.1 M, pH 7.4). The washed cells were lysed with NaOH (1 M) for 5 min. Pyrolysates were collected in the hoses, and the radioactivity count of each hose was measured by a γ-counter. The data were analyzed with GraphPad Prism 5.0 and nonlinearly fit to the log IC50 ± SD value.

[4] = Stability in saline / radiolabeling solution at room temperature (RCP by radio-HPLC); type: physicochemical; conditions: 4 h
Experimental: (§1) The complexes were determined by ITLC/SG of the ACD system and radio-HPLC. The ITLC/SG trip was cut into 10 equal parts, and radioactive counting of ITLC strips was determined by a γ-counter. ITLC results of both complexes were as follows: in ACD solution, [^99mTc]Tc-CN5FA and [^99mTc]Tc-CNPFA stayed at the origin (Rf = 0–0.1), while ^99mTcO4^− (Rf = 0.9–1.0) and ^99mTcO2·nH2O (Rf = 0.8–1.0) were moved to the front. Radio-HPLC was analyzed by a mobile phase system consisting of 0.1% TFA water (solvent A) and 0.1% TFA acetonitrile (solvent B) with a gradient of 0−2 min 10% B, 2−5 min 10%−90% B, 10−20 min 90% B, and 20−25 min 90%−10% B (system B) at a flow rate of 1 mL/min. All experiments were performed in triplicate.
(§2) The stability of [^99mTc]Tc-CN5FA and [^99mTc]Tc-CNPFA in vitro was evaluated by measuring the RCP of the complexes. Stability in saline was achieved by holding the solution at room temperature for 4 h. Stability in the serum was achieved by mixing 100 μL of [^99mTc]Tc-CN5FA or [^99mTc]Tc-CNPFA with 200 μL of mouse serum at 37 °C for 4 h. After precipitation using acetonitrile, centrifugation, and concentration, the solutions were analyzed by radio-HPLC.

[5] = Stability in mouse serum at 37 °C (RCP by radio-HPLC); type: in vitro ADME; conditions: 4 h
Experimental: as §1, §2

[6] = tested on: KB tumor-bearing mice; test: SPECT/CT imaging study in KB tumor-bearing mice; type: in vivo, BALB/c nude mice; conditions: 2 h post injection, about 18.5 MBq i.v.
Experimental: The SPECT/CT imaging experiments were also divided into a normal group and an inhibition group (n = 3). The labeled solution (about 18.5 MBq) was injected into the tail vein of nude mice bearing KB tumor. The inhibition group was injected with 100 µg FA (about 4 × 10^4 µg/kg) 30 min in advance. After 2 h, the SPECT/CT scan was performed in anesthetized mice by using 1.5% isoflurane. The SPECT acquisition (peak value 140 keV, 20% width, 90° rotation, MMP 919 Collimator) was performed after 4 min of CT scanning (512 views, 2 × 2 binding, 75 kV, exposure time 230 ms). SPECT/CT images were made using HiSPECT software and vivoquant 2.5 software.

[7] = Partition coefficient, 1-octanol / phosphate buffer pH 7.4; type: physicochemical; conditions: 1-octanol / phosphate buffer 0.025 M
Experimental: The partition coefficient was measured as follows: 1.9 mL of phosphate buffer solution (0.025 M, pH 7.4), 2.0 mL of 1-octanol, and 0.1 mL of ^99mTc-CN5FA or ^99mTc-CNPFA solution were added to the centrifuge tube, and the sample was swirled for 5 min and centrifuged for 5 min (3000 r/min). Then, the radioactivity counts of the two phases were measured by taking 0.1 mL from the organic phase and the water phase. The partition coefficient P was calculated. The final partition coefficient was expressed as log P ± SD.

[8] = 2 h p.i., block: FA about 4 × 10^4 µg/kg 30 min in advance

Solubility of ligand [1]: poor | Liver uptake ([2]; 2 h p.i., labeled under weak acid condition (before the pH was changed to weakly alkaline)): 52.35 ± 1.19 %ID/g
Structure (SMILES): [C-]#[N+]CCCCCC(=O)NCCNC(=O)CC[C@H](NC(=O)c1ccc(NCc2cnc3nc(N)[nH]c(=O)c3n2)cc1)C(=O)O [CN5FA, N^2-(4-(((2-Amino-4-oxo-3,4-dihydropteridin-6-yl)methyl)amino)benzoyl)-N^5-(2-(6-isocyanohexanamido)ethyl)-L-glutamine]

IC50 [3]: 37.9 ± 0.41 nM | T/B (tumor/blood ratio) ([2]; 0.5 h p.i.): 1.28 | T/M (tumor/muscle ratio) ([2]; 0.5 h p.i.): 1.76 | Blood uptake ([2]; 0.5 h p.i., i.v., n = 3): 2.36 ± 0.10 %ID/g | Bone uptake ([2]; 0.5 h p.i., i.v., n = 3): 1.03 ± 0.09 %ID/g | Heart uptake ([2]; 0.5 h p.i., i.v., n = 3): 2.60 ± 0.16 %ID/g | Intestines uptake ([2]; 0.5 h p.i., i.v., n = 3): 2.35 ± 0.79 %ID/g | Kidney uptake ([2]; 0.5 h p.i., i.v., n = 3): 47.20 ± 2.99 %ID/g | Liver uptake ([2]; 0.5 h p.i., i.v., n = 3): 13.91 ± 1.27 %ID/g | Lung uptake ([2]; 0.5 h p.i., i.v., n = 3): 2.88 ± 0.09 %ID/g | Muscle uptake ([2]; 0.5 h p.i., i.v., n = 3): 1.72 ± 0.10 %ID/g | Spleen uptake ([2]; 0.5 h p.i., i.v., n = 3): 3.07 ± 0.03 %ID/g | Stomach uptake ([2]; 0.5 h p.i., i.v., n = 3): 2.17 ± 0.70 %ID/g | Thyroid uptake ([2]; 0.5 h p.i., i.v., n = 3): 0.05 ± 0.00 %ID | T/M (tumor/muscle ratio) ([2]; 2 h p.i.): 1.91 | Blood uptake [2, 8]: 1.05 ± 0.08 %ID/g | Bone uptake [2, 8]: 1.02 ± 0.18 %ID/g | Heart uptake [2, 8]: 0.84 ± 0.05 %ID/g | Intestines uptake [2, 8]: 1.39 ± 0.15 %ID/g | Kidney uptake [2, 8]: 35.40 ± 4.08 %ID/g | Liver uptake [2, 8]: 10.22 ± 0.43 %ID/g | Lung uptake [2, 8]: 2.27 ± 0.16 %ID/g | Muscle uptake [2, 8]: 0.61 ± 0.10 %ID/g | Spleen uptake [2, 8]: 4.52 ± 0.38 %ID/g | Stomach uptake [2, 8]: 1.70 ± 0.16 %ID/g | Thyroid uptake [2, 8]: 0.03 ± 0.00 %ID | Blood uptake ([2]; 2 h p.i., i.v., n = 3): 1.08 ± 0.03 %ID/g | Bone uptake ([2]; 2 h p.i., i.v., n = 3): 0.87 ± 0.16 %ID/g | Heart uptake ([2]; 2 h p.i., i.v., n = 3): 2.29 ± 0.26 %ID/g | Intestines uptake ([2]; 2 h p.i., i.v., n = 3): 1.38 ± 0.15 %ID/g | Kidney uptake ([2]; 2 h p.i., i.v., n = 3): 51.92 ± 3.10 %ID/g | Liver uptake ([2]; 2 h p.i., i.v., n = 3): 11.88 ± 1.22 %ID/g | Lung uptake ([2]; 2 h p.i., i.v., n = 3): 2.78 ± 0.57 %ID/g | Muscle uptake ([2]; 2 h p.i., i.v., n = 3): 1.27 ± 0.03 %ID/g | Spleen uptake ([2]; 2 h p.i., i.v., n = 3): 3.08 ± 0.42 %ID/g | Stomach uptake ([2]; 2 h p.i., i.v., n = 3): 2.00 ± 0.33 %ID/g | Thyroid uptake ([2]; 2 h p.i., i.v., n = 3): 0.03 ± 0.01 %ID | Tumor uptake ([2]; 0.5 h p.i., i.v., n = 3): 3.03 ± 0.10 %ID/g | Tumor uptake [2, 8]: 1.53 ± 0.10 %ID/g | Tumor uptake ([2]; 2 h p.i., i.v., n = 3): 2.42 ± 0.44 %ID/g | RCP after incubation [4]: more than 95% | RCP after incubation [5]: more than 95% | log P [7]: −1.92 ± 0.15
Structure (SMILES): [99Tc+].[C-]#[N+]CCCCCC(=O)NCCNC(=O)CC[C@H](NC(=O)c1ccc(NCc2cnc3nc(N)[nH]c(=O)c3n2)cc1)C(=O)O.[C-]#[N+]CCCCCC(=O)NCCNC(=O)CC[C@H](NC(=O)c1ccc(NCc2cnc3nc(N)[nH]c(=O)c3n2)cc1)C(=O)O.[C-]#[N+]CCCCCC(=O)NCCNC(=O)CC[C@H](NC(=O)c1ccc(NCc2cnc3nc(N)[nH]c(=O)c3n2)cc1)C(=O)O.[C-]#[N+]CCCCCC(=O)NCCNC(=O)CC[C@H](NC(=O)c1ccc(NCc2cnc3nc(N)[nH]c(=O)c3n2)cc1)C(=O)O.[C-]#[N+]CCCCCC(=O)NCCNC(=O)CC[C@H](NC(=O)c1ccc(NCc2cnc3nc(N)[nH]c(=O)c3n2)cc1)C(=O)O.[C-]#[N+]CCCCCC(=O)NCCNC(=O)CC[C@H](NC(=O)c1ccc(NCc2cnc3nc(N)[nH]c(=O)c3n2)cc1)C(=O)O [[^99mTc]Tc-CN5FA]
Visualization of tumor lesions by SPECT/CT [6]: clearly visualized
